In the NIST ThermoML archive (doi:10.1021/je060271a):
Several values for one entry are separate records, joined by “and”; a condition that tells them apart may be missing. Equal entries are not always repeated.

Details: 283.14 K, Liquid, Vibrating tube method

CCCCCCC(=O)OCC(COC(=O)CCCCCC)(COC(=O)CCCCCC)COC(=O)CCCCCC [pentaerythritol tetraheptanoate]
Details	mass density
2521.6 kPa	987.2 kg/m3
2536.4 kPa	987.3 kg/m3
2553.4 kPa	987.3 kg/m3
2568.1 kPa	987.2 kg/m3
2582.9 kPa	987.4 kg/m3
2600 kPa	987.4 kg/m3
2614.3 kPa	987.4 kg/m3
2628.5 kPa	987.3 kg/m3
2642.2 kPa	987.3 kg/m3
2656.6 kPa	987.4 kg/m3
2675.1 kPa	987.4 kg/m3
2688.8 kPa	987.5 kg/m3
2704.6 kPa	987.4 kg/m3
2719.9 kPa	987.5 kg/m3
2736 kPa	987.6 kg/m3
2751.8 kPa	987.5 kg/m3
2766.5 kPa	987.5 kg/m3
2800.3 kPa	987.5 kg/m3
2816.5 kPa	987.5 kg/m3
2832.1 kPa	987.5 kg/m3
2851.8 kPa	987.5 kg/m3
2867.8 kPa	987.5 kg/m3
2885.5 kPa	987.5 kg/m3
2902.1 kPa	987.6 kg/m3
2918.6 kPa	987.6 kg/m3
2935.2 kPa	987.6 kg/m3
2954.3 kPa	987.6 kg/m3
2972 kPa	987.8 kg/m3
2987.9 kPa	987.4 kg/m3
3008.9 kPa	987.6 kg/m3
3025.6 kPa	987.6 kg/m3
3043.9 kPa	987.6 kg/m3
3062.1 kPa	987.7 kg/m3
3082.8 kPa	987.8 kg/m3
3101.3 kPa	987.7 kg/m3
3118.5 kPa	987.7 kg/m3
3140.8 kPa	987.7 kg/m3
3158.5 kPa	987.7 kg/m3
3176.4 kPa	987.8 kg/m3
3198.6 kPa	987.7 kg/m3
3218.2 kPa	987.7 kg/m3
3237.6 kPa	987.8 kg/m3
3256.6 kPa	987.8 kg/m3
3279 kPa	987.8 kg/m3
3300 kPa	987.8 kg/m3
3320.3 kPa	987.7 kg/m3
3339.7 kPa	987.8 kg/m3
3362.4 kPa	987.8 kg/m3
3382.2 kPa	987.9 kg/m3
3402.9 kPa	987.8 kg/m3
3422.4 kPa	987.9 kg/m3
3448.4 kPa	987.9 kg/m3
3468.1 kPa	987.9 kg/m3
3488.6 kPa	987.9 kg/m3
3515.4 kPa	987.8 kg/m3
3535.7 kPa	988 kg/m3
3561.2 kPa	987.9 kg/m3
3584.9 kPa	987.9 kg/m3
3606.2 kPa	987.9 kg/m3
3628.7 kPa	988 kg/m3
3652.3 kPa	987.9 kg/m3
3675 kPa	988 kg/m3
3703.2 kPa	988 kg/m3
3725.9 kPa	988 kg/m3
3750.4 kPa	988.1 kg/m3
3777.7 kPa	988.1 kg/m3
3800.4 kPa	988.1 kg/m3
3825.2 kPa	988 kg/m3
3853.3 kPa	988 kg/m3
3879.1 kPa	988 kg/m3
3903.5 kPa	988 kg/m3
3929.1 kPa	988.2 kg/m3
3959.3 kPa	988.2 kg/m3
3983.7 kPa	988.1 kg/m3
4010 kPa	988.4 kg/m3
4036.2 kPa	988.2 kg/m3
4066.7 kPa	988.2 kg/m3
4093.2 kPa	988.2 kg/m3
4121.2 kPa	988.2 kg/m3
4152.6 kPa	988.3 kg/m3
4181.1 kPa	988.3 kg/m3
4209.5 kPa	988.3 kg/m3
4236.7 kPa	988.3 kg/m3
4257.5 kPa	988.4 kg/m3
4379.6 kPa	988.4 kg/m3
4380.1 kPa	988.4 kg/m3
4380.5 kPa	988.4 kg/m3
4380.8 kPa	988.4 kg/m3
4381 kPa	988.4 kg/m3
4381.5 kPa	988.3 kg/m3
4381.9 kPa	988.6 kg/m3
4382.2 kPa	988.4 kg/m3
4382.4 kPa	988.4 kg/m3
4382.6 kPa	988.3 kg/m3 and 988.5 kg/m3
4382.7 kPa	988.4 kg/m3
4382.9 kPa	988.4 kg/m3 and 988.5 kg/m3
4383.1 kPa	988.4 kg/m3
4383.2 kPa	988.3 kg/m3 and 988.4 kg/m3
4383.4 kPa	988.5 kg/m3 and 988.4 kg/m3
4383.6 kPa	988.3 kg/m3 and 988.4 kg/m3 and 988.5 kg/m3
4383.8 kPa	988.5 kg/m3 and 988.4 kg/m3
4383.9 kPa	988.4 kg/m3 and 988.5 kg/m3 and 988.3 kg/m3
4384.1 kPa	988.4 kg/m3 [middle of 5 runs]
4384.3 kPa	988.4 kg/m3 and 988.5 kg/m3 and 988.3 kg/m3
4384.5 kPa	988.4 kg/m3 and 988.5 kg/m3 and 988.3 kg/m3
4384.6 kPa	988.5 kg/m3 and 988.4 kg/m3
4384.8 kPa	988.4 kg/m3 and 988.3 kg/m3
4385 kPa	988.4 kg/m3 and 988.3 kg/m3 and 988.5 kg/m3
4385.1 kPa	988.4 kg/m3 and 988.3 kg/m3 and 988.5 kg/m3
4385.3 kPa	988.4 kg/m3 and 988.5 kg/m3
4385.4 kPa	988.4 kg/m3
4385.5 kPa	988.4 kg/m3 and 988.3 kg/m3
